Measurements taken from PubChem BioAssay (NCI).
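Dose response: 5 concentrations. Exposure: 48 h. Format: 96-well plates. Endpoint: linear interpolation; highest concentration if not reached. GI50: concentration for 50% inhibition of growth. At the TGI there is no net growth.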

Experiments:
Assay in all cases: NCI tumour cell line growth inhibition, 48 h
[1] = tested on: A549 NSCLC
[2] = tested on: COLO 205 colon
[3] = tested on: DU-145 prostate
[4] = tested on: HT29 colon
[5] = tested on: IGROV1 ovarian
[6] = tested on: LOX IMVI melanoma
[7] = tested on: NCI-H23 lung
[8] = tested on: OVCAR-5 ovarian
[9] = tested on: OVCAR-8 ovarian
[10] = tested on: UO-31 renal

Compound	GI50 [1] [µM]	TGI [1] [µM]	GI50 [2] [µM]	TGI [2] [µM]	GI50 [3] [µM]	TGI [3] [µM]	GI50 [4] [µM]	TGI [4] [µM]	GI50 [5] [µM]	TGI [5] [µM]	GI50 [6] [µM]	TGI [6] [µM]	GI50 [7] [µM]	TGI [7] [µM]	GI50 [8] [µM]	TGI [8] [µM]	GI50 [9] [µM]	TGI [9] [µM]	GI50 [10] [µM]	TGI [10] [µM]
C[C@H]1C[C@@H](n2c(Nc3ccc(OC(F)(F)F)cc3)nc3cc(CCC(=O)O)ccc32)CC(C)(C)C1	11.1	30.2	18.8	39.4	13.8	27.2	14.6	30.9	12.6	28.7	11.8	25.9	12.9	30.5	17	31.5	13.2	35.1	9.38	21.5
CCCC(=O)OCC1OC(n2cc(F)c(=O)[nH]c2=O)CC1OC(=O)CCC (stereo not drawn)		> 10		> 10		> 2.62		> 10		> 10		> 10		5.02		> 10		> 10		> 10
O=C(CCN1CCCC1)Nc1ccc2c(Nc3ccc(F)cc3)c3ccccc3nc2c1	0.424	3.62	1.3	3.51	0.513	2.03	0.734	3.72	1.03	3.27	0.606	2.01	1.08	2.63	1.95	4.7	1.56	8.73	1.16	2.55
COc1ccc2[nH]c3c(C)c4c(c(C)c3c2c1)CN(C)C=C4		23.6		10.3		33.8		22.3		39.8		28.1		3.28		47		13.6		81.1
COc1ccc(-c2cn(C)c3c2-n2cccc2C3=O)cc1O	18.1	54.1	17.1	38.8	12.5	32.9	18	> 100	26.9	75.2	3.71	13.3	3.22	16.5	5.74	25.2	19.7	> 100	16.1	> 100
Nc1[nH]nc(Nc2ccccc2)c1-c1nc2ccccc2s1	2.96	11.9	1.89	3.92	3.02	11.6	3.39	11.5	2.58	8.88	1.59	2.97	1.73	5.04	2.26	8.77	2.36	5.98	1.33	7.16
COc1ccc(CCN2CCCn3c2nc2ccccc2c3=O)cc1	0.087	> 100	0.0555	1.13	0.211	> 64.8	0.0365	> 28.4	0.109	> 100	0.0762	> 100	0.232	> 83.9	0.95	> 100	0.423	> 100	0.876	> 100
COc1ccc(Cn2cc3c(c2-c2ccccc2)CCc2cnoc2-3)cc1	0.293	> 100	0.125	0.394	0.359	2.57	0.0797	1.58	0.114	> 100	0.38	> 100	0.234	> 100	0.505	> 100	0.416	> 100	0.677	> 100
COc1ccc(/C=C\c2cc(OC)c(OC)c(OC)c2)cc1NC(=O)/C=C/c1ccc(OC)c(OC)c1	4.89	> 100	2.05	10.9	4.93	> 100	3.39	> 100	18.8	> 100	7.41	> 100	16.5	> 100	7.69	> 100	5.1	> 100	6.21	> 100
CC(C)(C)OC(=O)NCCCCCCCCCn1c2c(c3ccccc3c1=O)C(=O)c1ccccc1-2	> 100	> 100	> 100	> 100	> 100	> 100	> 100	> 100	36.1	> 100	76.3	> 100	37	> 100	> 100	> 100	56.1	> 100	> 100	> 100
Cc1[nH]n(-c2nc(-c3ccccc3)cc(=O)[nH]2)c(=O)c1CCO		> 100		> 100		> 100		> 100		> 100		> 100		> 100		> 100		> 100		> 100
COc1ccc(-c2nc(NC(=O)CS(=O)(=O)c3ccc(F)cc3)sc2C)cc1			15.3	30.6	34.5	> 100	11	39.4	28.2	> 100	19.2	42.6	27.9	> 100	36	> 100	24.1	89.3	18.9	92
CN(c1cccc(C(=O)O)c1)c1cc(O/N=[N+](\[O-])N(C)C)c([N+](=O)[O-])cc1[N+](=O)[O-]	> 100	> 100	> 100	> 100	> 100	> 100	> 100	> 100	> 100	> 100	47.6	> 100	> 100	> 100	> 100	> 100	> 100	> 100	> 100	> 100
